Like-named read-outs stand apart in the source and are kept apart here.
Columns and labels:
[1] = system: MYC; details: in vitro; cited from earlier work
[2] = system: rhabdomyosarcoma cells; design: method as in PMID 32200036; details: cited from earlier work
[3] = system: glioblastoma; design: method as in earlier work; details: study discontinued; cited from earlier work
[4] = system: patients with newly diagnosed glioblastoma
Source text: The phase Ib, dose-escalation part of this study explored escalating oral doses of trotabresib in combination with TMZ in the adjuvant setting and with TMZ plus RT in the concomitant setting. […] Dose-escalation decisions were made by the safety review committee, based on all available safety, pharmacokinetics, pharmacodynamics, and preliminary efficacy information, and a calculation of risk assessment using a Bayesian logistic regression model.
The primary endpoints of the study were to determine the safety and tolerability, maximum tolerated dose, and/or recommended phase II dose (RP2D) of trotabresib in combination with TMZ as adjuvant therapy, and with TMZ and RT as concomitant therapy. […] Trotabresib pharmacodynamics was an exploratory endpoint.
Adverse events (AEs) were classified using the Medical Dictionary for Regulatory Activities v18.1 or higher system organ class and preferred term. Severity of AEs was graded based on the patient’s symptoms according to the National Cancer Institute Common Terminology Criteria for Adverse Events v5.0.[35] Dose-limiting toxicities (DLTs) were defined as any of the toxicities described in Supplementary Table S2 occurring within the DLT assessment period (cycle 1 [28 days]), unless the event could clearly be determined to be unrelated to trotabresib. Screening MRI scans were performed after surgical resection and within 28 days (+3 days) prior to initiation of study treatment. Subsequent tumor assessments by MRI or CT were performed at week 10 during the concomitant treatment period and at the end of every other treatment cycle from cycle 2 onwards during the adjuvant and trotabresib monotherapy treatment periods. Best overall response (BOR) was evaluated as complete response (CR), partial response (PR), SD, progressive disease (PD), or not evaluable, according to Response Assessment in Neuro-Oncology criteria for high-grade glioma.[36] Plasma samples were collected during the first treatment cycle for investigation of trotabresib pharmacokinetics and pharmacodynamics. Plasma pharmacokinetic parameters assessed included peak plasma concentration (Cmax), time to peak plasma concentration (tmax), area under the plasma concentration–time curve (AUC), and terminal half-life (t½). Pharmacodynamic markers assessed included blood levels of CCR1 and HEXIM1 mRNA, which are established markers of BET inhibitor target engagement.[17],[22],[37],[38]

[5] = system: breast cancer cells; design: method as in PMID 32848091; details: cited from earlier work
[6] = adjuvant overall (N = 18), related to labelled drug(s)
[7] = concomitant overall (N = 14), related to labelled drug(s)

Cc1sc2c(c1C)C(c1ccc(Cl)cc1)=N[C@@H](CC(=O)OC(C)(C)C)c1nnc(C)n1-2 [JQ1, reference compound]
MYC expression [1]: downregulated in vitro

Cc1sc2c(c1C)C(c1ccc(Cl)cc1)=N[C@@H](CC(=O)Nc1ccc(O)cc1)c1nnc(C)n1-2 [OTX015]
Antitumor activity as a single agent [2]: demonstrated antitumor activity as a single agent
Effect on ionizing radiation [2]: potentiated the effects of ionizing radiation
Clinical activity (primary endpoint 6-month PFS) [3]: lack of clinical activity

Cn1nnc2c(C(N)=O)ncn2c1=O [TMZ, temozolomide]
ALT increased TRAE, grade 3/4 [4, 6]: 1 (6) n (%)
AST increased TRAE, any grade [4, 6]: 2 (11) n (%)
AST increased TRAE, grade 3/4 [4, 6]: 0 n (%)
Acneiform dermatitis TRAE, any grade [4, 6]: 1 (6) n (%)
Acneiform dermatitis TRAE, grade 3/4 [4, 6]: 0 n (%)
Anemia TRAE, any grade [4, 6]: 3 (17) n (%)
Anemia TRAE, grade 3/4 [4, 6]: 0 n (%)
Any TRAE, any grade [4, 6]: 17 (94) n (%)
Any TRAE, grade 3/4 [4, 6]: 10 (56) n (%)
Asthenia TRAE, any grade [4, 6]: 6 (33) n (%)
Asthenia TRAE, grade 3/4 [4, 6]: 1 (6) n (%)
Blood bilirubin increased TRAE, any grade [4, 6]: 0 n (%)
Blood bilirubin increased TRAE, grade 3/4 [4, 6]: 0 n (%)
Decreased appetite TRAE, any grade [4, 6]: 6 (33) n (%)
Decreased appetite TRAE, grade 3/4 [4, 6]: 0 n (%)
Diarrhea TRAE, any grade [4, 6]: 5 (28) n (%)
Diarrhea TRAE, grade 3/4 [4, 6]: 0 n (%)
Dysgeusia TRAE, any grade [4, 6]: 4 (22) n (%)
Dysgeusia TRAE, grade 3/4 [4, 6]: 0 n (%)
Dyspepsia TRAE, any grade [4, 6]: 2 (11) n (%)
Dyspepsia TRAE, grade 3/4 [4, 6]: 0 n (%)
Fatigue TRAE, any grade [4, 6]: 2 (11) n (%)
Fatigue TRAE, grade 3/4 [4, 6]: 0 n (%)
Hyperbilirubinemia TRAE, any grade [4, 6]: 3 (17) n (%)
Hyperbilirubinemia TRAE, grade 3/4 [4, 6]: 0 n (%)
Hyperglycemia TRAE, any grade [4, 6]: 1 (6) n (%)
Hyperglycemia TRAE, grade 3/4 [4, 6]: 0 n (%)
Hypophosphatemia TRAE, any grade [4, 6]: 1 (6) n (%)
Hypophosphatemia TRAE, grade 3/4 [4, 6]: 0 n (%)
Hypotension TRAE, any grade [4, 6]: 0 n (%)
Hypotension TRAE, grade 3/4 [4, 6]: 0 n (%)
Insomnia TRAE, any grade [4, 6]: 1 (6) n (%)
Insomnia TRAE, grade 3/4 [4, 6]: 0 n (%)
Intracranial hemorrhage TRAE, any grade [4, 6]: 0 n (%)
Intracranial hemorrhage TRAE, grade 3/4 [4, 6]: 0 n (%)
Leukopenia TRAE, any grade [4, 6]: 2 (11) n (%)
Leukopenia TRAE, grade 3/4 [4, 6]: 0 n (%)
Lymphopenia TRAE, any grade [4, 6]: 2 (11) n (%)
Lymphopenia TRAE, grade 3/4 [4, 6]: 1 (6) n (%)
Nausea TRAE, any grade [4, 6]: 12 (67) n (%)
Nausea TRAE, grade 3/4 [4, 6]: 0 n (%)
Neutropenia TRAE, any grade [4, 6]: 7 (39) n (%)
Neutropenia TRAE, grade 3/4 [4, 6]: 4 (22) n (%)
Pruritus TRAE, any grade [4, 6]: 0 n (%)
Pruritus TRAE, grade 3/4 [4, 6]: 0 n (%)
Rash TRAE, any grade [4, 6]: 1 (6) n (%)
Rash TRAE, grade 3/4 [4, 6]: 0 n (%)
Seizure TRAE, any grade [4, 6]: 0 n (%)
Seizure TRAE, grade 3/4 [4, 6]: 0 n (%)
Thrombocytopenia TRAE, any grade [4, 6]: 13 (72) n (%)
Thrombocytopenia TRAE, grade 3/4 [4, 6]: 9 (50) n (%)
Vomiting TRAE, any grade [4, 6]: 7 (39) n (%)
Vomiting TRAE, grade 3/4 [4, 6]: 0 n (%)
ALT increased TRAE, any grade [4, 7]: 1 (7) n (%)
ALT increased TRAE, grade 3/4 [4, 7]: 1 (7) n (%)
AST increased TRAE, any grade [4, 7]: 1 (7) n (%)
AST increased TRAE, grade 3/4 [4, 7]: 0 n (%)
Acneiform dermatitis TRAE, any grade [4, 7]: 2 (14) n (%)
Acneiform dermatitis TRAE, grade 3/4 [4, 7]: 0 n (%)
Anemia TRAE, any grade [4, 7]: 4 (29) n (%)
Anemia TRAE, grade 3/4 [4, 7]: 2 (14) n (%)
Any TRAE, any grade [4, 7]: 14 (100) n (%)
Any TRAE, grade 3/4 [4, 7]: 9 (64) n (%)
Asthenia TRAE, any grade [4, 7]: 4 (29) n (%)
Asthenia TRAE, grade 3/4 [4, 7]: 0 n (%)
Blood bilirubin increased TRAE, any grade [4, 7]: 1 (7) n (%)
Blood bilirubin increased TRAE, grade 3/4 [4, 7]: 0 n (%)
Decreased appetite TRAE, any grade [4, 7]: 4 (29) n (%)
Decreased appetite TRAE, grade 3/4 [4, 7]: 0 n (%)
Diarrhea TRAE, any grade [4, 7]: 3 (21) n (%)
Diarrhea TRAE, grade 3/4 [4, 7]: 0 n (%)
Dysgeusia TRAE, any grade [4, 7]: 4 (29) n (%)
Dysgeusia TRAE, grade 3/4 [4, 7]: 0 n (%)
Dyspepsia TRAE, any grade [4, 7]: 2 (14) n (%)
Dyspepsia TRAE, grade 3/4 [4, 7]: 0 n (%)
Fatigue TRAE, any grade [4, 7]: 5 (36) n (%)
Fatigue TRAE, grade 3/4 [4, 7]: 1 (7) n (%)
Hyperbilirubinemia TRAE, any grade [4, 7]: 2 (14) n (%)
Hyperbilirubinemia TRAE, grade 3/4 [4, 7]: 0 n (%)
Hyperglycemia TRAE, any grade [4, 7]: 0 n (%)
Hyperglycemia TRAE, grade 3/4 [4, 7]: 0 n (%)
Hypophosphatemia TRAE, any grade [4, 7]: 1 (7) n (%)
Hypophosphatemia TRAE, grade 3/4 [4, 7]: 0 n (%)
Hypotension TRAE, any grade [4, 7]: 0 n (%)
Hypotension TRAE, grade 3/4 [4, 7]: 0 n (%)
Insomnia TRAE, any grade [4, 7]: 0 n (%)
Insomnia TRAE, grade 3/4 [4, 7]: 0 n (%)
Intracranial hemorrhage TRAE, any grade [4, 7]: 0 n (%)
Intracranial hemorrhage TRAE, grade 3/4 [4, 7]: 0 n (%)
Leukopenia TRAE, any grade [4, 7]: 1 (7) n (%)
Leukopenia TRAE, grade 3/4 [4, 7]: 0 n (%)
Lymphopenia TRAE, any grade [4, 7]: 3 (21) n (%)
Lymphopenia TRAE, grade 3/4 [4, 7]: 1 (7) n (%)
Nausea TRAE, any grade [4, 7]: 11 (79) n (%)
Nausea TRAE, grade 3/4 [4, 7]: 0 n (%)
Neutropenia TRAE, any grade [4, 7]: 6 (43) n (%)
Neutropenia TRAE, grade 3/4 [4, 7]: 4 (29) n (%)
Pruritus TRAE, any grade [4, 7]: 0 n (%)
Pruritus TRAE, grade 3/4 [4, 7]: 0 n (%)
Rash TRAE, any grade [4, 7]: 0 n (%)
Rash TRAE, grade 3/4 [4, 7]: 0 n (%)
Seizure TRAE, any grade [4, 7]: 0 n (%)
Seizure TRAE, grade 3/4 [4, 7]: 0 n (%)
Thrombocytopenia TRAE, any grade [4, 7]: 10 (71) n (%)
Thrombocytopenia TRAE, grade 3/4 [4, 7]: 7 (50) n (%)
Vomiting TRAE, any grade [4, 7]: 8 (57) n (%)
Vomiting TRAE, grade 3/4 [4, 7]: 0 n (%)
ALT increased TRAE, any grade ([4]; human, in vivo): 2 (11) n (%)
TEAEs leading to discontinuation of the labelled study drug(s), patients ([4]; human, in vivo): 2 (11) 2 (11) 2 (11) n (%)
TRAEs leading to discontinuation of TMZ, related to labelled drug(s) ([4]; human, in vivo): 1 (6) 1 (6) 1 (6) n (%)
TRAEs leading to discontinuation of any study drug, related to labelled drug(s) ([4]; human, in vivo): 1 (6) 1 (6) 1 (6) n (%)
TRAEs leading to discontinuation of trotabresib, related to labelled drug(s) ([4]; human, in vivo): 1 (6) 1 (6) 1 (6) n (%)

CCNC(=O)C[C@@H]1N=C(c2ccc(Cl)cc2)c2cc(OC)ccc2-n2c(C)nnc21 [iBET-762]
Expression of the HER2-regulated gene TUBB3 [5]: upregulated expression
Sensitivity to vinorelbine ([5]; in vitro and in PDX models): increased sensitivity to vinorelbine

Source: paper PMC9653173, “Trotabresib (CC-90010) in combination with adjuvant temozolomide or concomitant temozolomide plus radiotherapy in patients with newly diagnosed glioblastoma” (Neuro-Oncology Advances, 2022)
